In assay [1] the test system is bovine adrenal medullary microvascular endothelial cells. The experiment in a line: DNA laddering by agarose gel electrophoresis. In kind it is cell-based. As to conditions: DNA from cells treated with 1 μg/ml tunicamycin for 32 hours.
In assay [2] the test system is tunicamycin sensitive clone JMEC. The experiment in a line: Apoptosis and recovery in the tunicamycin sensitive cell clone. Type of assay: cell-based, bovine. From the text:
To understand the precise molecular mechanism of tunicamycin induced apoptosis of capillary endothelial cells, a cell clone was isolated from the parental culture that was maintained in a serum-free media for six weeks following synchronization. The morphology of these cells and their growth profile appear quite different. For example, the shapes are more spindle-like, resembling Kaposi's Sarcoma lesions endothelial cells, as disclosed in FIORELLI et al., “Cytokines from Activated T Cells Induce Normal Endothelial Cells to Acquire the Phenotypic and Functional Features of AIDS-Kaposi's Sarcoma Spindle Cells”, J. Clin. Invest., 95:1723-1734 (1995), the disclosure of which is herein incorporated by reference in its entirety. The cells undergo two-population doubling in 2% (v/v) fetal bovine serum, differentiate in 5 days, and complete one cell cycle in approximately 56 hours (FIG. 4).
There was no recovery after exposing the cells to 1 μg/ml-10 μg/ml tunicamycin for 72 hours or more (not all data shown).

In the case of tunicamycin, the DNA laddering entry in assay [1] is recorded as “appearance of laddering”. The “concentration for apoptosis less than needed for parental cells” value in assay [2] (10 ng/ml in clone versus parental cells) turned out to be 100 fold. Also, the “cells recovered in 5 days” value in assay [2] (10 ng/ml tunicamycin for 24 hours) is “approximately 60%”; in assay [2] (1 μg/ml tunicamycin for 48 hours), “recovered similarly”. Also, the “apoptosis of the sensitive clone” value in assay [2] (10 ng/ml tunicamycin, 32 hours) is reported as “undergoes apoptosis”. Further, the recovery of cells result in assay [2] (1 μg/ml-10 μg/ml tunicamycin for 72 hours or more) was “no recovery”. The cells recovered result in assay [2] (10 μg/ml tunicamycin for 48 hours) is “less than 20%”.

The record behind these values is US7361643B2, “Methods for inhibiting angiogenesis” (University of Puerto Rico, priority 2000, dated 2008).
